Test results taken from patent publication US20260007681A1, “INDOLE DERIVATIVES AS ESTROGEN RECEPTOR DEGRADERS” (REGENTS OF THE UNIVERSITY OF MICHIGAN, priority 2022, published 2026).

molecular target: ER (Homo sapiens (Human), UniProt P03372); experiment: Western blot analysis (Compounds B1-B278); type: cell-based; conditions: ER degradation by traditional Western blot; DC50 classes
In short: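 Compound-treated cells were lysed in RIPA buffer (Tris.HCl pH 7.6, 1% NP-40, deoxycholate, 0.1% SDS) with protease inhibitors; equal protein was resolved on 10% SDS-PAGE, transferred to PVDF and immunoblotted. Band intensities were quantified and normalized to GAPDH.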

Chain of ER (P03372 whole entry): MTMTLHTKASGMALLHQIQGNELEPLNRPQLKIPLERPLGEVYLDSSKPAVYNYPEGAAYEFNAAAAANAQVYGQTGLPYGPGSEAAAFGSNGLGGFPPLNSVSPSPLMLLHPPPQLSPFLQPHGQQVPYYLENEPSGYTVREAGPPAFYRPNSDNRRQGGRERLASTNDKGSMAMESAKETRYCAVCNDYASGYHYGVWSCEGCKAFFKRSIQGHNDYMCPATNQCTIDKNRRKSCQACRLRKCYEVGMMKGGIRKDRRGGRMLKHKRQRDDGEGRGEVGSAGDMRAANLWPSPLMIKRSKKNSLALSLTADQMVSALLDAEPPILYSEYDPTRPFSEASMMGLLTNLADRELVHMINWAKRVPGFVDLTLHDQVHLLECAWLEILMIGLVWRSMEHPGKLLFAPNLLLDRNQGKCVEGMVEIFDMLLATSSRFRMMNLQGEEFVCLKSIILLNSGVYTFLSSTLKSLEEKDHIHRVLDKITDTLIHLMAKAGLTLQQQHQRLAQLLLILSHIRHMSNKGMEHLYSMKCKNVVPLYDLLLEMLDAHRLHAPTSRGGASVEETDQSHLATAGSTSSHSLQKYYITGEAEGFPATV

| Traditional Western Degradation Potency | Compound |
| --- | --- |
| C (“C”: >100 nM) | C[C@@H]1Cc2c([nH]c3ccccc23)[C@@H](c2ncc(C3=CCC(C(=O)N4CCC(N5Cc6cc7c(cc6C5)C(=O)N(C5CCC(=O)NC5=O)C7=O)CC4)CC3)cc2F)N1CC(C)(C)F (stereo partly drawn) [Compound B248, 2-(2,6-dioxopiperidin-3-yl)-6-(1-(4-(5-fluoro-6-((1S,3R)-2-(2-fluoro-2-methylpropyl)-3-methyl-2,3,4,9-tetrahydro-1H-pyrido[3,4-b]indol-1-yl)pyridin-3-yl)cyclohex-3-ene-1-carbonyl)piperidin-4-yl)-6,7-dihydropyrrolo[3,4-f]isoindole-1,3(2H,5H)-dione] |
| A (“A”: <10 nM) | C[C@@H]1Cc2c([nH]c3ccccc23)[C@@H](c2c(F)cc(C3CCC(C(=O)N4CCC(N5Cc6cc7c(cc6C5)C(=O)N(C5CCC(=O)NC5=O)C7)CC4)CC3)cc2F)N1CC(F)F (stereo partly drawn) [Compound B84, 3-(6-(1-(4-(4-((1R,3R)-2-(2,2-difluoroethyl)-3-methyl-2,3,4,9-tetrahydro-1H-pyrido[3,4-b]indol-1-yl)-3,5-difluorophenyl)cyclohexane-1-carbonyl)piperidin-4-yl)-1-oxo-3,5,6,7-tetrahydropyrrolo[3,4-f]isoindol-2(1H)-yl)piperidine-2,6-dione] |
| B (“B”: 10-100 nM) | C[C@@H]1Cc2c([nH]c3ccccc23)[C@@H](c2c(F)cc(C3CCC(C(=O)N4CCC(F)(CN5Cc6cc7c(cc6C5)C(=O)N(C5CCC(=O)NC5=O)C7=O)CC4)CC3)cc2F)N1CC(F)F (stereo partly drawn) [Compound B78, 6-((1-(4-(4-((1R,3R)-2-(2,2-difluoroethyl)-3-methyl-2,3,4,9-tetrahydro-1H-pyrido[3,4-b]indol-1-yl)-3,5-difluorophenyl)cyclohexane-1-carbonyl)-4-fluoropiperidin-4-yl)methyl)-2-(2,6-dioxopiperidin-3-yl)-6,7-dihydropyrrolo[3,4-f]isoindole-1,3(2H,5H)-dione] |

Further lines, the compound ahead of its results:

| Compound | Traditional Western Degradation Potency |
| --- | --- |
| C[C@@H]1Cc2c([nH]c3ccccc23)[C@@H](c2c(F)cc(N3CCC4(CCN(C(=O)CN5Cc6cc7c(cc6C5)C(=O)N(C5CCC(=O)NC5=O)C7=O)CC4)CC3)cc2F)N1CC(F)F (stereo partly drawn) [Compound B52, 6-(2-(9-(4-((1R,3R)-2-(2,2-difluoroethyl)-3-methyl-2,3,4,9-tetrahydro-1H-pyrido[3,4-b]indol-1-yl)-3,5-difluorophenyl)-3,9-diazaspiro[5.5]undecan-3-yl)-2-oxoethyl)-2-(2,6-dioxopiperidin-3-yl)-6,7-dihydropyrrolo[3,4-f]isoindole-1,3(2H,5H)-dione] | A (“A”: <10 nM) |
| C[C@@H]1Cc2c([nH]c3ccccc23)[C@@H](c2c(F)cc(N3CC4(CN(C(=O)CN5Cc6cc7c(cc6C5)C(=O)N(C5CCC(=O)NC5=O)C7)C4)C3)cc2F)N1CC(F)F (stereo partly drawn) [Compound B14, 3-(6-(2-(6-(4-((1R,3R)-2-(2,2-difluoroethyl)-3-methyl-2,3,4,9-tetrahydro-1H-pyrido[3,4-b]indol-1-yl)-3,5-difluorophenyl)-2,6-diazaspiro[3.3]heptan-2-yl)-2-oxoethyl)-1-oxo-3,5,6,7-tetrahydropyrrolo[3,4-b]isoindol-2(1H)-yl)piperidine-2,6-dione] | A (“A”: <10 nM) |
| C[C@@H]1Cc2c([nH]c3ccccc23)[C@@H](c2c(F)cc(N3CC4(CCN(CC(=O)N5Cc6cc7c(cc6C5)C(=O)N(C5CCC(=O)NC5=O)C7)CC4)C3)cc2F)N1CC(F)F (stereo partly drawn) [Compound B38, 3-(6-(2-(2-(4-((1R,3R)-2-(2,2-difluoroethyl)-3-methyl-2,3,4,9-tetrahydro-1H-pyrido[3,4-b]indol-1-yl)-3,5-difluorophenyl)-2,7-diazaspiro[3.5]nonan-7-yl)acetyl)-1-oxo-3,5,6,7-tetrahydropyrrolo[3,4-f]isoindol-2(1H)-yl)piperidine-2,6-dione] | A (“A”: <10 nM) |
